In series [1] the test system is L1210 leukemia. Put plainly: Therapeutic effect (survival prolongation) on CDF1 mice bearing L1210 leukemia. To be noted: for Survival prolongation rate (T/C %): L1210-bearing CDF1 mice, i.p. every day for 10 days, control = 100; for survival prolongation effect (in words): mice transplanted with leukemia cells. It is filed as in vivo, mouse (CDF1 mice). How it is done: The therapeutic effect of 2-hydroxyaclacinomycin B was studied on CDF1 mice bearing L1210 leukemia. From 24 hours after 1×10^5 L1210 cells/animal were intraperitoneally transplanted to CDF1 mice, 2-hydroxyaclacinomycin B was intraperitoneally given everyday for 10 days. The prolongation of the survival time was calculated relative to the control animals receiving physiological saline as 100. Table 1 compares the in vitro and in vivo activities and toxicities of 2-hydroxyaclacinomycins A, B, and N and aclacinomycin A.

Series [2] concerns mouse leukemia cells L1210. Briefly: Growth inhibition of cultured L1210 cells. As to conditions: for IC50: Mus musculus; for inhibition of growth and nucleic acid synthesis of L1210 cells (in words): mouse leukemia cells L1210. It is filed as cell-based. How it is done:
For determination of the 50% growth inhibition concentration (IC50), 5×10^4 L1210 cells/ml (final concentration) were inoculated into RPMI 1640 medium (Rosewell Park Memorial Institutes 1640 medium) containing 20% calf serum. The anthracycline compounds of the present invention were added to give a final concentrations from 0.01 μg/ml to 0.25 μg/ml, while the control contained no drug. After incubation at 37° C. in a carbon dioxide incubator, the cell counts of the test and control cultures were measured for calculation of the IC50 concentration of antibiotic.

The subject of series [3] is DNA synthesis in L1210 cells. Put plainly: DNA synthesis inhibition in cultured L1210 cells (14C-thymidine incorporation). It is filed as cell-based. As to conditions: Mus musculus, 1 h, 60 minutes, 10% calf serum, 37° C., read-out: 50% Inhibition concentration (IC50), DNA synthesis inhibition. How it is done:
(§1) Fifteen minutes after the anthracycline compounds of the present invention were added at varied concentrations, 0.05 μCi/ml (final concentration) of ^14 C-uridine or ^14 C-thymidine was added and cultivated at 37° C. for a further 60 minutes. The incorporation of the radioactive base was stopped by addition of 10% trichloroacetic acid. The acid-insoluble matters were recovered; washed three times with 10-5% trichloroacetic acid; and dissolved in formic acid.
In general terms: Incorporation of labelled thymidine or its analogues reports DNA synthesis.

Series [4] relates to RNA synthesis in L1210 cells. Put plainly: RNA synthesis inhibition in cultured L1210 cells (14C-uridine incorporation). It is filed as cell-based, mouse. As to conditions: for IC50: Mus musculus, 1 h, cultured L1210 cells, 14C-uridine, 60 minutes, 10% calf serum, 37° C., read-out: 50% Inhibition concentration (IC50), RNA synthesis inhibition. How it is done:
as §1

For series [5] the following is noted: compared with aclacinomycin A; European Publication No. 30255; cited from earlier work.
The conditions of series [6]: cited from earlier work.
Series [7] concerns Mice. Briefly: Acute toxicity, mice, i.p.
Setting [8] is: cultured L1210 cells, RPMI 1640 with 20% calf serum, 37° C., read-out: 50% Inhibition concentration (IC50), growth inhibition.

Converted amounts (≈) assume the structure as drawn. Read-outs that look alike come from different tables or passages of the source.

Consider `CCC1(O)CC(OC2CC(N(C)C)C(OC3CC(O)C(OC4CCC(=O)C(C)O4)C(C)O3)C(C)O2)c2c(cc3c(c2O)C(=O)c2c(O)cc(O)cc2C3=O)C1C(=O)OC` (centres unmarked) [2-Hydroxyaclacinomycin A], for which the “Survival prolongation rate (T/C %)” value in series [1] (dose 0.63 mg/kg) came out at 124%; in series [1] (dose 1.25 mg/kg), 148%; in series [1] (dose 2.5 mg/kg) it was 176%; in series [1] (dose 5 mg/kg), 218%; in series [1] (dose 7.5 mg/kg) it was 220%; in series [1] (dose 10 mg/kg), 158%. The “Survival prolongation rate (T/C %)” value in series [1] (dose 12 mg/kg) amounted to 120%. Moreover, the “survival prolongation effect (in words)” value in series [1] is on record as “excellent survival prolongation effect”. In addition, the “killing of mouse leukemia cells L1210 (in words)” value (“killing” for short) in series [2] is “kill mouse leukemia cells L1210 at a low concentration”. Moreover, the figures for the IC50 in series [2] (setting [8]), in series [3] and in series [4] were 0.04 µg/mL (≈ 0.0483 µM), 0.85 µg/mL (≈ 1.03 µM) and 0.14 µg/mL (≈ 0.169 µM), respectively. For the same compound, the “inhibition of growth and nucleic acid synthesis of L1210 cells (in words)” value (from here on “inhibition … of L1210 cells (in words)”) in series [2] was “markedly inhibit the growth and the nucleic acid synthesis”. Besides, the “RNA synthesis versus DNA synthesis inhibition (in words)” value in series [4] was “inhibit RNA synthesis more specifically than DNA synthesis”. Moreover, the “antitumor activity (in words)” value in series [5] was “stronger antitumor activity”. The “cardio-toxicity (in words)” value in series [6] (compared with aclacinomycin A, European Publication No. 30255) is reported as “less cardio-toxic, than aclacinomycin A”. The “Toxicity (acute)” value in series [7] came to 50.0.

With `CCC1(O)CC(OC2CC(N(C)C)C(OC3CC4OC5CC(=O)C(C)OC5OC4C(C)O3)C(C)O2)c2c(cc3c(c2O)C(=O)c2c(O)cc(O)cc2C3=O)C1C(=O)OC` (centres unmarked) [2-Hydroxyaclacinomycin B, 2-hydroxyaclacinomycin B], the “Survival prolongation rate (T/C %)” value in series [1] (dose 0.63 mg/kg) is 110%; in series [1] (dose 1.25 mg/kg), 131%; in series [1] (dose 2.5 mg/kg), 153%; in series [1] (dose 5 mg/kg), 200%; in series [1] (dose 7.5 mg/kg), 226%; in series [1] (dose 10 mg/kg) it was 139%. Further, the “Survival prolongation rate (T/C %)” value in series [1] (dose 12 mg/kg) came out at 113%. Further, in series [1], the “survival prolongation effect (in words)” value is reported as “excellent survival prolongation effect”. For the same compound, in series [1] (mouse, in vivo), the “antitumor activity (in words)” value is listed as “marked antitumor activity”. The “killing” value in series [2] is listed as “kill mouse leukemia cells L1210 at a low concentration”. The IC50 worked out at 0.03 µg/mL (≈ 0.0363 µM) in series [2] (L1210, read-out: 50% Inhibition concentration (IC50), growth inhibition); 1 µg/mL (≈ 1.21 µM) in series [3]; 0.22 µg/mL (≈ 0.266 µM) in series [4]. Further, in series [2], the “inhibition … of L1210 cells (in words)” value was “markedly inhibit the growth and the nucleic acid synthesis”. In addition, the “RNA synthesis versus DNA synthesis inhibition (in words)” value in series [4] is “inhibit RNA synthesis more specifically than DNA synthesis”. Besides, the “Toxicity (acute)” value in series [7] is reported as 50.0.

Turning to `CCC1(O)CC(OC2CC(N(C)C)C(OC3CC(O)C(OC4CCC(O)C(C)O4)C(C)O3)C(C)O2)c2c(cc3c(c2O)C(=O)c2c(O)cc(O)cc2C3=O)C1C(=O)OC` (centres unmarked) [2-Hydroxyaclacinomycin N, 2-hydroxyaclacinomycin N], the “Survival prolongation rate (T/C %)” value in series [1] (dose 0.63 mg/kg) is 109%; in series [1] (dose 1.25 mg/kg), 128%; in series [1] (dose 2.5 mg/kg), 148%; in series [1] (dose 5 mg/kg) it was 202%; in series [1] (dose 7.5 mg/kg) it was 219%; in series [1] (dose 10 mg/kg) it was 144%. Besides, the “Survival prolongation rate (T/C %)” value in series [1] (dose 12 mg/kg) is 108%. Also, the “survival prolongation effect (in words)” value in series [1] was “excellent survival prolongation effect”. The “killing” value in series [2] was “kill mouse leukemia cells L1210 at a low concentration”. Also, the results for the IC50 in series [2] (setting [8]), in series [3] and in series [4] were 0.04 µg/mL (≈ 0.0482 µM), 1.18 µg/mL (≈ 1.42 µM) and 0.18 µg/mL (≈ 0.217 µM), respectively. Moreover, the “inhibition … of L1210 cells (in words)” value in series [2] was “markedly inhibit the growth and the nucleic acid synthesis”. In addition, in series [4], the “RNA synthesis versus DNA synthesis inhibition (in words)” value was “inhibit RNA synthesis more specifically than DNA synthesis”. Besides, the “Toxicity (acute)” value in series [7] turned out to be 45.7.

`CCC1(O)CC(OC2CC(N(C)C)C(OC3CC(O)C(OC4CCC(=O)C(C)O4)C(C)O3)C(C)O2)c2c(cc3c(c2O)C(=O)c2c(O)cccc2C3=O)C1C(=O)OC` (centres unmarked) [Aclacinomycin A, reference compound]: the “Survival prolongation rate (T/C %)” value in series [1] (dose 0.63 mg/kg) is reported as 107%; in series [1] (dose 1.25 mg/kg), 125%; in series [1] (dose 2.5 mg/kg), 186%; in series [1] (dose 5 mg/kg) it was 196%; in series [1] (dose 7.5 mg/kg), 123%; in series [1] (dose 10 mg/kg), “Toxic”. Also, the figures for the IC50 in series [2] (setting [8]), in series [3] and in series [4] were 0.01 µg/mL (≈ 0.0123 µM), 0.3 µg/mL (≈ 0.37 µM) and 0.04 µg/mL (≈ 0.0493 µM), respectively. For the same compound, the “toxicity and cardio-toxicity among hitherto-developed anthracycline antibiotics (in words)” value in series [6] (compared with hitherto-developed anthracycline antibiotics) is “the least toxic and cardio-toxic among the hitherto-developed anthracycline antibiotics”. The “Toxicity (acute)” value in series [7] is 22.6.

Values taken from patent US4474945A, “Anthracycline antibiotics” (priority 1981, dated 1984).
